Measurements taken from patent US20100292214A1, “Compounds with Antiparasitic Activity, Applications thereof to the Treatment of Infectious Diseases Caused by Apicomplexans” (commissariat a l'Energie Atomique, priority 2007, published 2010).
Structures can show the parent of a compound that is named as a salt.

Legend:
[1] = tested on: asynchronous 3D7 chloroquine-sensitive P. falciparum infected red blood cells; test: Labeled hypoxanthine incorporation assay (in vitro anti-malarial activity); format: cell-based; settings: Plasmodium falciparum, 3D7, Erythrocyte, 3D7 chloroquine-sensitive strain, infected RBC, 48 h contact, [3H]-hypoxanthine incorporation; two independent experiments in duplicates; read-out: IC50 assessed on Plasmodium Falciparum
[2] = tested on: Toxoplasma gondii RH-β1 strain; test: microbe, parasite or virus in culture; format: cell-based; settings: Toxoplasma gondii, read-out: IC50 assessed on Toxoplama Gondii

Row | SMILES | IC50 [1] | IC50 [2]
1 | C[C@@H](COC(=O)N1CCC(n2c(=O)oc3ccccc32)CC1)N(Cc1ccccc1)Cc1ccccc1 [Compound 2, (S)-2-(dibenzylamino)propyl 4-(2-oxobenzo[d]oxazol-3(2H)-yl)piperidine-1-carboxylate] | 14800 nM | 800 nM
2 | C[C@@H](COC(=O)N1CCC(n2cnc3ccccc32)CC1)N(Cc1ccccc1)Cc1ccccc1 [Compound 3, (S)-2-(dibenzylamino)propyl 4-(1H-benzo[d]imidazol-1-yl)piperidine-1-carboxylate] | 1810 nM | 8000 nM
3 | C[C@@H](COC(=O)N1CCC(Oc2nc3ccccc3n2C)CC1)N(Cc1ccccc1)Cc1ccccc1 [Compound 5, (S)-2-(dibenzylamino)propyl 4-(1-methyl-1H-benzo[d]imidazol-2-yloxy)piperidine-1-carboxylate] | 6160 nM | 2500 nM
4 | C[C@@H](COC(=O)NCCCn1c(=O)[nH]c2ccccc21)N(Cc1ccccc1)Cc1ccccc1 [Compound 6, (S)-2-(dibenzylamino)propyl 3-(1,2-dihydro-2-oxobenzo[d]imidazol-3-yl)propylcarbamate] | 16600 nM | 381 nM
5 | C[C@@H](COC(=O)N1CCC(N2CCCc3ccccc32)CC1)N(Cc1ccccc1)Cc1ccccc1 [Compound 8, (S)-2-(dibenzylamino)propyl 4-(3,4-dihydroquinolin-1(2H)-yl)piperidine-1-carboxylate] | 2810 nM | 25000 nM
6 | O=c1[nH]c2ccccc2n1C1CCN(CCCCN(Cc2ccccc2)Cc2ccccc2)CC1 [Compound 9, 1-(1-(4-(dibenzylamino)butyl)piperidin-4-yl)-1H-benzo[d]imidazol-2(3H)-one] | 2950 nM | 1500 nM
7 | C[C@@H](COC(=O)N1CCC(n2c(=O)[nH]c3ncccc32)CC1)N(Cc1ccccc1)Cc1ccccc1 [Compound 11, (S)-2-(dibenzylamino)propyl 4-(2,3-dihydro-2-oxoimidazo[4,5-b]pyridin-1-yl)piperidine-1-carboxylate] | 3840 nM | 2500 nM
8 | CN(CCOC(=O)N1CCC(n2c(=O)[nH]c3ccccc32)CC1)Cc1ccccc1 [Compound 27, 2-(N-benzyl-N-methylamino)ethyl 4-(1,2-dihydro-2-oxobenzo[d]imidazol-3-yl)piperidine-1-carboxylate] |  | 2000 nM
9 | O=C(OCCOCc1ccccc1)N1CCC(n2c(=O)[nH]c3ccccc32)CC1 [Compound 31, 2-(benzyloxy)ethyl 4-(1,2-dihydro-2-oxobenzo[d]imidazol-3-yl)piperidine-1-carboxylate] |  | 500 nM
10 | O=C(OC1CCCN(Cc2ccccc2)C1)N1CCC(n2c(=O)[nH]c3ccccc32)CC1 (centres unmarked) [Compound 33, 1-benzylpiperidin-3-yl 4-(1,2-dihydro-2-oxobenzo[d]imidazol-3-yl)piperidine-1-carboxylate] |  | 450 nM
11 | CC(C)N(CCOC(=O)N1CCC(n2c(=O)[nH]c3ccccc32)CC1)C(C)C [Compound 34, 2-(diisopropylamino)ethyl 4-(1,2-dihydro-2-oxobenzo[d]imidazol-3-yl)piperidine-1-carboxylate] |  | 27000 nM
12 | CN(C)CCOC(=O)N1CCC(n2c(=O)[nH]c3ccccc32)CC1 [Compound 35, 2-(dimethylamino)ethyl 4-(1,2-dihydro-2-oxobenzo[d]imidazol-3-yl)piperidine-1-carboxylate] |  | 4000 nM
13 | CCN(CC)CCOC(=O)N1CCC(n2c(=O)[nH]c3ccccc32)CC1 [Compound 39, 2-(diethylamino)ethyl 4-(1,2-dihydro-2-oxobenzo[d]imidazol-3-yl)piperidine-1-carboxylate] |  | 12000 nM
14 | C[C@@H](COC(=O)N1CCC(n2c(=O)n(C(=O)C(C)(C)C)c3ccccc32)CC1)N(Cc1ccccc1)Cc1ccccc1 [Compound 66, (S)-2-(dibenzylamino)propyl 4-(1,2-dihydro-2-oxo-1-(pivaloyl)benzo[d]imidazol-3-yl)piperidine-1-carboxylate] |  | 2800 nM
15 | C[C@@H](COC(=O)N1CCC(N(c2ccccc2)S(=O)(=O)c2ccc(-c3ccccc3)cc2)CC1)N(Cc1ccccc1)Cc1ccccc1 [Compound 170, (S)-2-(dibenzylamino)propyl 4-(N-phenyl-biphenyl-4-sulfonamido)piperidine-1-carboxylate] | 2200 nM | 
16 | C[C@@H](COC(=O)N1CCC(N(c2ccccc2)S(=O)(=O)c2ccc3ccccc3c2)CC1)N(Cc1ccccc1)Cc1ccccc1 [Compound 171, (S)-2-(dibenzylamino)propyl 4-(N-phenyl-naphthalen-2-ylsulfonamido)piperidine-1-carboxylate] | 4430 nM | 
17 | C[C@@H](COC(=O)N1CCC(Nc2ccccc2Sc2ccc(Cl)cc2)CC1)N(Cc1ccccc1)Cc1ccccc1 [Compound 173, (S)-2-(dibenzylamino)propyl 4-(2-(4-chlorophenylthio)phenylamino)piperidine-1-carboxylate] | 2580 nM | 

Row | SMILES | IC50 [1] | IC50 [2]
18 | Cc1cccc(C)c1NC1CCN(C(=O)OC[C@H](Cc2ccccc2)N(Cc2ccccc2)Cc2ccccc2)CC1 [Compound 174, (S)-2-(dibenzylamino)-3-phenylpropyl 4-(2,6-dimethylphenylamino)piperidine-1-carboxylate] | 913 nM | 
19 | CCc1cccc(CC)c1NC1CCN(C(=O)OC[C@H](Cc2ccccc2)N(Cc2ccccc2)Cc2ccccc2)CC1 [Compound 175, (S)-2-(dibenzylamino)-3-phenylpropyl 4-(2,6-diethylphenylamino)piperidine-1-carboxylate] | 2600 nM | 
20 | CSc1ccccc1NC1CCN(C(=O)OC[C@H](Cc2ccccc2)N(Cc2ccccc2)Cc2ccccc2)CC1 [Compound 176, (S)-2-(dibenzylamino)-3-phenylpropyl 4-(2-(methylthio)phenylamino)piperidine-1-carboxylate] | 2650 nM | 
21 | C[C@@H](COC(=O)N1CCC(n2c(N)nc3ccccc32)CC1)N(Cc1ccccc1)Cc1ccccc1 [Compound 177, (S)-2-(dibenzylamino)propyl 4-(2-amino-1H-benzo[d]imidazol-1-yl)piperidine-1-carboxylate] |  | 3800 nM
22 | O=C(Oc1ccc(N(Cc2ccccc2)Cc2ccccc2)cc1)N1CCC(n2c(=O)[nH]c3ccccc32)CC1 [Compound 178, 4-(dibenzylamino)phenyl 4-(1,2-dihydro-2-oxobenzo[d]imidazol-3-yl)piperidine-1-carboxylate] |  | 1300 nM
23 | C[C@@H](COC(=O)N1CCC(c2cccc3[nH]c(=O)[nH]c23)CC1)N(Cc1ccccc1)Cc1ccccc1 [Compound 179, (S)-2-(dibenzylamino)propyl 4-(2-oxo-2,3-dihydro-1H-benzo[d]imidazol-4-yl)piperidine-1-carboxylate] |  | 3250 nM
24 | O=C(OCCCCCCN(Cc1ccccc1)Cc1ccccc1)N1CCC(n2c(=O)[nH]c3ccccc32)CC1 [Compound 180, 6-(dibenzylamino)hexyl 4-(1,2-dihydro-2-oxobenzo[d]imidazol-3-yl)piperidine-1-carboxylate] |  | 2000 nM
25 | O=C(OCc1ccccc1)N1CCC(n2c(=O)[nH]c3ccccc32)CC1 [Compound 181, Benzyl 4-(1,2-dihydro-2-oxobenzo[d]imidazol-3-yl)piperidine-1-carboxylate] |  | 300 nM
26 | O=C(OCC1CCCCN1Cc1ccccc1)N1CCC(n2c(=O)[nH]c3ccccc32)CC1 (centres unmarked) [Compound 182, (1-benzylpiperidin-2-yl)methyl 4-(1,2-dihydro-2-oxobenzo[d]imidazol-3-yl)piperidine-1-carboxylate] |  | 5000 nM
27 | O=C(OC[C@H](Cc1ccccc1)N(Cc1ccccc1)Cc1ccccc1)N1CCC(N(c2ccccc2)S(=O)(=O)c2ccc(C(F)(F)F)cc2)CC1 [Compound 183, (S)-2-(dibenzylamino)-3-phenylpropyl 4-(N-phenyl-4-(trifluoromethyl)phenylsulfonamido)piperidine-1-carboxylate] |  | 3100 nM
28 | C[C@@H](COC(=O)N1CCC(n2c(=O)[nH]c3ccccc32)CC1)N(Cc1ccccc1)Cc1ccc(F)cc1 [Compound 184, (S)-2-(benzyl(4-fluorobenzyl)amino)propyl 4-(2-oxo-2,3-dihydro-1H-benzo[d]imidazol-1-yl)piperidine-1-carboxylate hydrochloride] |  | 3300 nM
29 | CC(C)(C)OC(=O)N(CCOC(=O)N1CCC(n2c(=O)[nH]c3ccccc32)CC1)Cc1ccccc1 [Compound 185, 2-(benzyl(tert-butoxycarbonyl)amino)ethyl 4-(2-oxo-2,3-dihydro-1H-benzo[d]imidazol-1-yl)piperidine-1-carboxylate] |  | 2000 nM
30 | Cn1c(CN(CCCOC(=O)N2CCC(n3c(=O)[nH]c4ccccc43)CC2)Cc2ccccc2)cc2ccccc21 [Compound 186, 3-(benzyl((1-methyl-1H-indol-2-yl)methyl)amino)propyl 4-(2-oxo-2,3-dihydro-1H-benzo[d]imidazol-1-yl)piperidine-1-carboxylate hydrochloride] |  | 4800 nM
31 | COC(=O)c1ccc(CN(CCOC(=O)N2CCC(n3c(=O)[nH]c4ccccc43)CC2)Cc2ccccc2)cc1 [Compound 187, 2-(benzyl(4-(methoxycarbonyl)benzyl)amino)ethyl 4-(2-oxo-2,3-dihydro-1H-benzo[d]imidazol-1-yl)piperidine-1-carboxylate] |  | 2200 nM
32 | O=C(OCCCN(Cc1ccccc1)Cc1cccc(OCc2ccccc2)c1)N1CCC(n2c(=O)[nH]c3ccccc32)CC1 [Compound 188, 3-(benzyl(3-(benzyloxy)benzyl)amino)propyl 4-(2-oxo-2,3-dihydro-1H-benzo[d]imidazol-1-yl)piperidine-1-carboxylate] |  | 3000 nM
33 | CC(C)C[C@@H](COC(=O)N1CCC(n2c(=O)[nH]c3ccccc32)CC1)NCc1ccccc1 [Compound 189, (S)-2-(benzylamino)-4-methylpentyl 4-(2-oxo-2,3-dihydro-1H-benzo[d]imidazol-1-yl)piperidine-1-carboxylate] |  | 2300 nM
34 | O=C(OCC(Cc1ccccc1)NCc1ccccc1)N1CCC(n2c(=O)[nH]c3ccccc32)CC1 (centres unmarked) [Compound 190, 2-(benzylamino)-3-phenylpropyl 4-(2-oxo-2,3-dihydro-1H-benzo[d]imidazol-1-yl)piperidine-1-carboxylate] |  | 800 nM
